Test results reported in patent publication US20150111815A1, “NOVEL CYCLOSPORIN DERIVATIVES FOR THE TREATMENT AND PREVENTION OF VIRAL INFECTIONS” (S&T Global Inc., priority 2011, published 2015).
*1 amine or outer side, *2 acyl side, *3 side chain or, on linkers, in order; H or OH if unused. Where a SMILES comes first, the peptide text is derived from it. [ ]: non-standard residue; d: D form. MeBmt = C/C=C/C[C@@H](C)[C@@H](O)[C@H](NC)C(=O)O; X3 = CN(C)CCC[C@H](C(=O)[*:2])N(C)[*:1]; NMeL = CN[C@@H](CC(C)C)C(=O)O; NMeV = CN[C@H](C(=O)O)C(C)C; Abu = CC[C@H](N)C(=O)O

Columns and labels:
HCV = settings: reported in Hopkins, S. et al., 2010; read-out: in vitro anti-HCV activity (EC50); cited from earlier work
[1] = tested on: HCV replicon in cell line ET (luc-ubi-neo/ET), Huh7 human hepatoma cells; assay: HCV subgenomic replicon assay (luciferase end point); type: cell-based; settings: Hepatitis C virus, Huh-7, read-out: Antiviral activity: IC50 (μM)
Procedure: The anti-HCV activity of cyclosporine derivatives were evaluated in the HCV subgenomic replicon assay. The assay use the cell line ET (luc-ubi-neo/ET), which is a Huh7 human hepatoma cell line harboring an HCV replicon with a stable luciferase (Luc) reporter. HCV RNA replication was assessed by quantifying HCV replicon-derived luciferase activity. The antiviral activity of cyclosporine analogs were evaluated after drug treatment, the EC 50 and EC 90 were determined in subsequent assessments by using the luciferase end point (Krieger, N., et al., 2001, J. Virol. 75, 4614-4624; Pietschmann, T., et al., 2002, J. Virol. 76, 4008-4021; each of which is incorporated herein by reference).

| Compound | EC50 (HCV) | IC50 [1] |
| --- | --- | --- |
| C/C=C/C[C@@H](C)[C@@H](O)[C@H]1C(=O)N[C@@H](CC)C(=O)N(C)[C@H](SCCN(C)C)C(=O)N(C)[C@@H](CC(C)(C)O)C(=O)N[C@@H](C(C)C)C(=O)N(C)[C@@H](CC(C)C)C(=O)N[C@@H](C)C(=O)N[C@H](C)C(=O)N(C)[C@@H](CC(C)C)C(=O)N(C)[C@@H](CC(C)C)C(=O)N(C)[C@@H](C(C)C)C(=O)N1C [SCY-635] | 0.1 µM | – |
| C/C=C/C[C@@H](C)[C@@H](O)[C@H]1C(=O)N[C@@H](CC)C(=O)N(C)[C@H](CCCN(C)C)C(=O)N(C)[C@@H](C(C)C)C(=O)N[C@@H](C(C)C)C(=O)N(C)[C@@H](CC(C)C)C(=O)N[C@@H](C)C(=O)N[C@H](C)C(=O)N(C)[C@@H](CC(C)C)C(=O)N(C)[C@@H](CC(C)C)C(=O)N(C)[C@@H](C(C)C)C(=O)N1C [Example 43, [(R)-3-(N,N-Dimethylamino)propyl-Sar]-3-[NMeVal]-4-cyclosporin] (cyclo(A[dA][NMeL][NMeL][NMeV][MeBmt][Abu][X3][NMeV]V[NMeL])) | – | < 0.25 µM |
| C/C=C/C[C@@H](C)[C@@H](O)[C@H]1C(=O)N[C@@H](CC)C(=O)N(C)[C@@H](CCN(CC)CC)C(=O)N(C)[C@@H](CC(C)(C)O)C(=O)N[C@@H](C(C)C)C(=O)N(C)[C@@H](CC(C)C)C(=O)N[C@@H](C)C(=O)N[C@H](C)C(=O)N(C)[C@@H](CC(C)C)C(=O)N(C)[C@@H](CC(C)C)C(=O)N(C)[C@@H](C(C)C)C(=O)N1C [Example 33, [(S)-2-(N,N-Diethylamino)ethyl-Sar]-3-[(γ-hydroxy)-NMeLeu]-4-Cyclosporin] | – | < 5 µM |
